Experimental data taken from publication PMC4464647, “ANO1 (TMEM16A) in pancreatic ductal adenocarcinoma (PDAC)” (Pflugers Archiv, 2014).
d = 2'-deoxy (DNA)

Tests used:
[1] = target: T1, CaCC current (Homo sapiens, UniProt Q5XXA6); assay: Whole-cell patch-clamp of CaCC currents in PDAC cells, 1 μM Ca2+ in pipette solution; type: cell-based; settings: for decrease of CaCC currents: siRNA 50 nM, compared to scrambled siRNA (MOCK)
T1 construct: Whole-cell patch-clamp recordings identified large Ca^2+ and voltage-dependent Cl^− currents in PDAC cells; endogenous in cells; host or cells: Capan-1, AsPC-1, BxPC-3 (human PDAC cell lines, ATCC)
T1 sequence (Q5XXA6 1-986): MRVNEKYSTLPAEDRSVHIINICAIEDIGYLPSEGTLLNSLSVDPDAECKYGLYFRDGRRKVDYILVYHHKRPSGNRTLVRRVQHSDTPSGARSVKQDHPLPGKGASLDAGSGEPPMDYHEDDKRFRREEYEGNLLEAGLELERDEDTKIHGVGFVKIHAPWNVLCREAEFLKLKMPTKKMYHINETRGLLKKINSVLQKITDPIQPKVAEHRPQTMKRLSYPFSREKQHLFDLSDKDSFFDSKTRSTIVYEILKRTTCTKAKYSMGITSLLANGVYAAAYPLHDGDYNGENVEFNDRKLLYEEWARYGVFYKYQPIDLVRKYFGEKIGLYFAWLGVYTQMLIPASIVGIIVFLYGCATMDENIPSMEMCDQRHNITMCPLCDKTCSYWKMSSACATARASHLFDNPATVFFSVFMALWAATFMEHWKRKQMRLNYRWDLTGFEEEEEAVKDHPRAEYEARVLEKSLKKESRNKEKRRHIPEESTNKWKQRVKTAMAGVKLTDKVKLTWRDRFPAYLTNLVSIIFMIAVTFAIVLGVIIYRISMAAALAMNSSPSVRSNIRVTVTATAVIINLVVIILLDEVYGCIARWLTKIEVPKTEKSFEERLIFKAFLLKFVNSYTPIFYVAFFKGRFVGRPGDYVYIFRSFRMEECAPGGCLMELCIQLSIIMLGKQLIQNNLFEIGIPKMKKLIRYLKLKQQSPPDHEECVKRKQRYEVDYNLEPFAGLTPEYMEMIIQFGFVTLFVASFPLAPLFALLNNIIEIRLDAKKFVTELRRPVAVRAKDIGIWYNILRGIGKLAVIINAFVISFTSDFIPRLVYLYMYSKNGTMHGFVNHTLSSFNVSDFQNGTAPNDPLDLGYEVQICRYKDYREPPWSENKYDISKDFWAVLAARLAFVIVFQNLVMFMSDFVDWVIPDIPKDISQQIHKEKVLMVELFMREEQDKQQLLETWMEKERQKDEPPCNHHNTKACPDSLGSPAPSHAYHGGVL
Experimental: Cells were grown on poly-L-lysine coated coverslips. For knockdown experiments, cells were transfected with siRNA targeting ANO1 or scrambled siRNA shortly after complete attachment of the cells (approx. 3 h after plating). Currents were measured 36–48 h after transfection. Whole-cell patch-clamp recordings were performed using the Axopatch 200B amplifier interfaced to a Digidata 1440A controlled by pClamp10 software (Molecular Devices, USA). Analogue signals were acquired at 2.5 kHz and filtered at 1 kHz. […] An agar bridge made of 3 % agar and 97 % of the bath solution containing NMDG-Cl (below) was used as reference electrode. Current activations were recorded from an output holding potential, V out = 0 mV with ramp protocols spanning from −100 to 100 mV over 1 s and run continuously with 15-s intervals. Step protocols between −100 to 120 mV were generated from V out = 0 mV with step increments of 20 mV and lengths of 2 s. Liquid junction potentials (V lj) were estimated as described in [10] with membrane potentials calculated as, V m = V out − V lj. Series resistance was compensated by 60–70 %. All recordings were performed at room temperature (18–23 °C). Instantaneous currents were measured 1 ms after each voltage step. The data was fitted using the Goldman–Hodgkin–Katz (GHK) current equation.1 ICl^−=Pz^2F^2V/RTCo−Cie^zFV/RT/1−e^zFV/RT
One micromolar free Ca^2+ pipette solution include the following (in mM): 100 CsAsp, 40 CsCl, 4.34 CaCl2, 4 Na2ATP, 1 MgCl2, 5 EGTA, 10 HEPES, pH 7.2, osmolality 295 mosmol/kg or 0 μM free Ca^2+ solution containing no CaCl2 and 10 mM EGTA. Standard bath solution include the following (in mM): 150 NaCl, 1.5 CaCl2, 1 MgCl2, 10 glucose, 10 HEPES, pH 7.4, osmolality 315 mosmol/kg (adjusted with D-mannitol). Isotonic solution include the following (in mM): 85 NaCl, 2 MgCl2, 1.5 CaCl2, 10 glucose, 10 HEPES, pH 7.4, of osmolality 315 mosmol/kg (adjusted with D-mannitol). The hypotonic solution with osmolality of 210 mosmol/kg was obtained by omitting D-mannitol from the isotonic solution. For experiments testing efficiency of an inhibitor, NaCl was replaced by N-methyl-D-glucamine chloride (NMDG-Cl) after seal formation. All osmolalities were measured in a Wescor Vapro model 5520 osmometer (Wescor Inc., USA) calibrated by the manufacturer’s Optimol standard solutions.
Whole-cell patch-clamp recordings with 1 μM Ca^2+ in pipette solution. a Representative current traces measured in Capan-1 cells upon exposure to different inhibitors. b Quantification of CaCC currents at +67 mV recorded with inhibitors compared to currents in presence of DMSO; currents of siANO1 cells were compared to those of MOCK transfected cells. c Steady-state I–V relationships of cells transfected with either scrambled siRNA (MOCK) or siRNA targeting ANO1. d Densitometric quantification of Western blot analysis of siRNA knockdown. β-Actin was used as a loading control. (n) = number of individual experiments

[2] = system: AsPC-1 cells; assay: Scratch wound healing assay; type: cell-based, human; settings: AsPC-1, siRNA 50 nM vs scrambled 5 nM, 5 μM aphidicolin
Experimental: Cells were seeded into Essen ImageLock 96-well plates. Cells were transfected with siRNA shortly after cells completely attached at 80 % confluency. […] The wound confluence was obtained and analyzed by using the IncuCyte phase-contrast imaging and scratch wound assay system and software (Essen Bioscience, USA). Wound closure was assessed by comparing the mean relative wound density (%RWD) according to the following formula: % RWD = 100 × w(t) − w(0)/[…]. Here, w(t) is the density of wounded area at time t and c(t) is the density of cell region at time t. Each experiment was conducted in triplicates.
We therefore assessed a possible contribution of ANO1 in PDAC cell migration using wound healing assay. […] The experiments were conducted in the presence of 5 μM aphidicolin to rule out a possible effect on cell proliferation. […] AsPC-1 cells were therefore not well suited for studies of lateral motility.
Fig. 9 ANO1 supports migration of PDAC cells. Wound healing assay is shown as relative wound density (density of wounded area relative to confluency of cell region) over time. Aphidicolin (5 μM) was added to stop proliferation. a AsPC-1 cells and b BxPC-3 cells after transfection with either scrambled siRNA (5 nM) or siRNA targeting ANO1 (50 nM). c BxPC-3 cells in presence of different inhibitors. Data shown represents mean ± s.e.m. of n = 4 experiments; each run was carried out in triplicates

Row | Compound | inhibition at 20 µM ([1]; ASPC1, AsPC-1 cells, inhibitor 20 μM, at +67 mV, vs DMSO) [%] | inhibition of CaCC current ([1]; BxPC-3 cells, inhibitor 20 μM, at +67 mV, vs DMSO) | inhibition at 20 µM ([1]; Capan-1 cells, inhibitor 20 μM, at +67 mV, vs DMSO) [%] | migration (relative wound density over time) [2] | decrease of CaCC currents ([1]; AsPC-1 cells) [%] | decrease of CaCC currents ([1]; BxPC-3 cells) [%] | decrease of CaCC currents ([1]; Capan-1 cells) [%]
1 | CCc1c(C)nc(SCC(=O)Nc2nc(-c3ccc(OC)cc3)cs2)[nH]c1=O [T16Ainh-A01, 2-[(5-Ethyl-1,6-dihydro-4-methyl-6-oxo-2-pyrimidinyl)thio]-N-[4-(4-methoxyphenyl)-2-thiazolyl]acetamide] | 29 ± 2 | ineffective | 43 ± 8 |  |  |  | 
2 | siRNA targeting ANO1: Predesigned siRNA oligo from Sigma-Aldrich, 5′-CCUUCAACGUCAGUGACUU[dT][dT]-3′, 5′-AAGUCACUGACGUUGAAGG[dT][dT]-3′ (RNA, 3' dTdT, backbone not given here) |  |  |  | significantly decreased migration | 89 ± 51 | 84 ± 23 | 88 ± 42
